In PubChem BioAssay AID256 (DTP/NCI, 2004):
Values joined by “and” are separate entries in the source; they are usually repeats but may differ in a detail not shown here. Equal entries are not always repeated. Inconclusive results and toxic doses are left out.

System: CD2F1 mice, L1210 leukemia ip, survival T/C
Assay: NCI In Vivo Anticancer Drug Screen. Data for tumor model L1210 Leukemia (intraperitoneal) in CD2F1 (CDF1) mice
Conditions: higher = longer survival
Summary of the method: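 Ratio T/C, where T is the treated-group value and C the vehicle-dosed control value, from mice implanted with a transplantable tumor.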

[1] = endpoint: mean survival time, dose: 50.0 mg/kg/injection, schedule: Q01DX009 (ip), vehicle: other
[2] = endpoint: mean survival time, dose: 100.0 mg/kg/injection, schedule: Q01DX001 (ip), vehicle: saline
[3] = endpoint: mean survival time, dose: 100.0 mg/kg/injection, schedule: Q01DX009 (ip), vehicle: other
[4] = endpoint: mean survival time, dose: 200.0 mg/kg/injection, schedule: Q01DX001 (ip), vehicle: saline
[5] = endpoint: mean survival time, dose: 200.0 mg/kg/injection, schedule: Q01DX009 (ip), vehicle: other
[6] = endpoint: mean survival time, dose: 400.0 mg/kg/injection, schedule: Q01DX001 (ip), vehicle: saline
[7] = endpoint: mean survival time, dose: 100.0 mg/kg/injection, schedule: Q04DX003 (ip), vehicle: saline with Tween-80
[8] = endpoint: mean survival time, dose: 200.0 mg/kg/injection, schedule: Q04DX003 (ip), vehicle: saline with Tween-80
[9] = endpoint: mean survival time, dose: 400.0 mg/kg/injection, schedule: Q04DX003 (ip), vehicle: saline with Tween-80

Question: Cc1cc(N=Nc2ccc(S(=O)(=O)[O-])cc2)cc(C(=O)[O-])c1[O-].NC1CCCCC1N.[Na+].[Pt+4] was tested. Which T/C (endpoint: median survival time, dose: 3.12 mg/kg/injection, schedule: Q04DX003 (ip), vehicle: saline with Tween-80) did it give?
Answer: Its T/C is 180 % of control and 287 % of control.

Question: What about the T/C (endpoint: median survival time, dose: 6.25 mg/kg/injection, schedule: Q04DX003 (ip), vehicle: saline with Tween-80) of the same compound?
Answer: The T/C was 265 % of control and 344 % of control.

Question: And the T/C (endpoint: median survival time, dose: 12.5 mg/kg/injection, schedule: Q04DX003 (ip), vehicle: saline with Tween-80)?
Answer: The T/C was 244 % of control and 310 % of control.

Question: And the T/C (endpoint: median survival time, dose: 25.0 mg/kg/injection, schedule: Q04DX003 (ip), vehicle: saline with Tween-80)?
Answer: Its T/C is 122 % of control.

Question: What does the source list for N=C(N)c1ccc(N=Nc2c(O)ccc3cc(O)ccc23)cc1?
Answer: T/C (endpoint: median survival time, dose: 12.5 mg/kg/injection, schedule: Q01DX005 (ip), vehicle: Klucel (hydroxypropylcellulose) (HPC)): 104 % of control and 107 % of control; T/C (endpoint: median survival time, dose: 25.0 mg/kg/injection, schedule: Q01DX005 (ip), vehicle: Klucel (hydroxypropylcellulose) (HPC)): 100 % of control and 102 % of control; T/C (endpoint: median survival time, dose: 50.0 mg/kg/injection, schedule: Q01DX005 (ip), vehicle: Klucel (hydroxypropylcellulose) (HPC)): 90 % of control and 103 % of control; T/C (endpoint: median survival time, dose: 100.0 mg/kg/injection, schedule: Q01DX005 (ip), vehicle: Klucel (hydroxypropylcellulose) (HPC)): 95 % of control and 107 % of control; T/C (endpoint: median survival time, dose: 200.0 mg/kg/injection, schedule: Q01DX005 (ip), vehicle: Klucel (hydroxypropylcellulose) (HPC)): 104 % of control

Question: How did the T/C [1] turn out when CCC(=O)c1cc(O)ccc1O was run?
Answer: Its T/C is 109 % of control.

Question: What about the T/C [2] of the same compound?
Answer: Its T/C is 101 % of control.

Question: And the T/C [3]?
Answer: The T/C was 109 % of control.

Question: What about the T/C [4] of the same compound?
Answer: The T/C was 101 % of control.

Question: And the T/C [5]?
Answer: The T/C was 108 % of control.

Question: And the T/C [6]?
Answer: Its T/C is 102 % of control.

Question: What does the source list for Cc1c(Cl)cccc1N=Cc1ccc2c(c1)OCO2?
Answer: T/C (endpoint: mean survival time, dose: 100.0 mg/kg/injection, schedule: Q04DX003 (ip), vehicle: Klucel (hydroxypropylcellulose) (HPC)): 102 % of control; T/C (endpoint: mean survival time, dose: 200.0 mg/kg/injection, schedule: Q04DX003 (ip), vehicle: Klucel (hydroxypropylcellulose) (HPC)): 96 % of control; T/C (endpoint: mean survival time, dose: 400.0 mg/kg/injection, schedule: Q04DX003 (ip), vehicle: Klucel (hydroxypropylcellulose) (HPC)): 102 % of control

Question: What does the source list for N\C([S-])=N/N=C\C(=N/N=C(\N)[S-])C(O)C(O)C(O)CO.[Rh+2] (stereo not given)?
Answer: T/C [2]: 98 % of control; T/C [4]: 96 % of control; T/C [6]: 96 % of control

Question: For CCCC(CN(C)C)C(=O)c1ccccc1 (stereo not given), which T/C (endpoint: mean survival time, dose: 100.0 mg/kg/injection, schedule: Q04DX002 (ip), vehicle: saline with Tween-80) is on record?
Answer: The T/C was 86 % of control.

Question: Which T/C [7] does the source give for COc1cc2c3c(c1OC)C1(C=CC(=O)C=C1)CC3N(C(C)=O)CC2 (stereo not given) here?
Answer: Its T/C is 97 % of control.

Question: What about the T/C [8] of the same compound?
Answer: The T/C was 95 % of control.

Question: What about the T/C [9] of the same compound?
Answer: The T/C was 94 % of control.

Question: Which results are given for Cc1ccc(-c2c(O)c(Br)c(-c3ccc(C)cc3C)c(O)c2Br)c(C)c1?
Answer: T/C (endpoint: mean survival time, dose: 100.0 mg/kg/injection, schedule: Q01DX009 (ip), vehicle: saline with Tween-80): 97 % of control; T/C [7]: 93 % of control; T/C (endpoint: mean survival time, dose: 200.0 mg/kg/injection, schedule: Q01DX009 (ip), vehicle: saline with Tween-80): 97 % of control; T/C [8]: 90 % of control; T/C (endpoint: mean survival time, dose: 400.0 mg/kg/injection, schedule: Q01DX009 (ip), vehicle: saline with Tween-80): 94 % of control; T/C [9]: 92 % of control

Question: With NS(=O)(=O)c1ccc(SSc2ccc(S(N)(=O)=O)cc2[N+](=O)[O-])c([N+](=O)[O-])c1 as the compound, how does the T/C (endpoint: mean survival time, dose: 12.5 mg/kg/injection, schedule: Q01DX009 (ip), vehicle: other) read?
Answer: The T/C was 95 % of control.

Question: What about the T/C (endpoint: mean survival time, dose: 25.0 mg/kg/injection, schedule: Q01DX009 (ip), vehicle: other) of the same compound?
Answer: Its T/C is 95 % of control.

Question: And the T/C [1]?
Answer: The T/C was 96 % of control.

Question: What about the T/C [3] of the same compound?
Answer: The T/C was 98 % of control.

Question: What about the T/C [5] of the same compound?
Answer: Its T/C is 95 % of control.

Question: With [Cl][Pt][Cl].[NH-]C(CO)C(=O)O (stereo not given) as the compound, how does the T/C (endpoint: mean survival time, dose: 3.13 mg/kg/injection, schedule: Q04DX003 (ip), vehicle: water) read?
Answer: The T/C was 106 % of control.

Question: What about the T/C (endpoint: mean survival time, dose: 6.25 mg/kg/injection, schedule: Q04DX003 (ip), vehicle: water) of the same compound?
Answer: The T/C was 113 % of control.

Question: And the T/C (endpoint: mean survival time, dose: 12.5 mg/kg/injection, schedule: Q04DX003 (ip), vehicle: water)?
Answer: The T/C was 113 % of control.

Question: And the T/C (endpoint: mean survival time, dose: 25.0 mg/kg/injection, schedule: Q04DX003 (ip), vehicle: water)?
Answer: Its T/C is 118 % of control.

Question: What about the T/C (endpoint: mean survival time, dose: 50.0 mg/kg/injection, schedule: Q04DX003 (ip), vehicle: water) of the same compound?
Answer: Its T/C is 119 % of control.

Question: What about the T/C (endpoint: mean survival time, dose: 100.0 mg/kg/injection, schedule: Q04DX003 (ip), vehicle: water) of the same compound?
Answer: The T/C was 95 % of control.

Question: What about the T/C (endpoint: median survival time, dose: 6.25 mg/kg/injection, schedule: Q01DX009 (ip), vehicle: water) of the same compound?
Answer: The T/C was 117 % of control.

Question: And the T/C (endpoint: median survival time, dose: 12.5 mg/kg/injection, schedule: Q01DX009 (ip), vehicle: water)?
Answer: Its T/C is 117 % of control.

Question: What about the T/C (endpoint: median survival time, dose: 25.0 mg/kg/injection, schedule: Q01DX009 (ip), vehicle: water) of the same compound?
Answer: The T/C was 124 % of control.
